In US11963966B2, “Compositions and methods for treating ovarian tumors” (Dana-Farber Cancer Institute, Inc., priority 2017, dated 2024):
“Also recorded” adds a separate entry of the source.

Assays:
[1] = test system: cells from abdominal ascites of ovarian patient NACT14; test: Sensitivity of patient-derived ovarian cells in a microfluidic device; assay type: cell-based; conditions: 10 μM, ~800 cells in 1 microliter, imaging 48 hours after drug
Description: Heterogeneous cell population isolated from abdominal ascites of ovarian patient NACT14. A limited number of cells (˜800 cells) in a volume of 1 microliter were tested for sensitivity of JSI124. On day 0, the cells were seeded in the microfluidic device. On day 1, drug was administered, together with a blue dye (FIG. 29-FIG. 31).
Hoechst confocal imaging (stained nuclei) was used to observe cells forty eight (48) hours after the drug was added (FIG. 32-FIG. 35).

[2] = test system: ex vivo patient-derived ovarian cancer spheroids; test: Microscopic analysis of patient-derived spheroids/cells after drug treatment; assay type: cell-based
Description: (§1) FIG. 6A-FIG. 6G are a series of graphs and images depicting the impact of JAK/STAT-inhibition on spheroid formation, invasion and killing ex vivo and in vitro. FIG. 6A a histogram (FIG. 11B), showing drug screening with 14 compounds (at 1 μM) inhibiting the JAK/STAT pathway in OVACR4. Relative viability compared to DMSO control measured by CTG. […] The same library was screened in 2D-cultures of OVACR4 (FIG. 11A), and 2D-cultures of OVACR8 (FIG. 11C) and 3D-cultures of OVACR8 (FIG. 11D). FIG. 6B is a series of plots showing drug sensitivity testing using the GILA assay in platinum-resistant ex vivo spheroid cultures of patients DF3291 and DF3266, The X-axis indicates the log μM concentration of drugs indicated in the legend, Y-axis indicates the percentage of luminescence signal as indicator for viability relatively to DMSO treated cells. In both patients, half maximal effective concentration (EC50) were ˜100 nM and ˜10 nM, respectively, while other drugs routinely used for the treatment of (platinum-resistant) ovarian cancer had EC50>10 μM. FIG. 6C is a series of images of microscopic analysis of spheroids with different drug treatments to highlight the morphologic changes during therapy with drugs listed. Inhibition of JAK/STAT pathway disrupts ex vivo spheroid cultures. […] 20 spheroids clusters were analyzed for each iteration. […]

[3] = test system: STAT3 activity in Heya8 cells; test: STAT3-dependent luciferase assay after oncostatin M (OSM) stimulation; assay type: cell-based; conditions: Heya8 cells pre-treated 1 hour vs DMSO, then OSM stimulation
[4] = Adverse effects in JSI-124 treated PDX mice; assay type: in vivo; conditions: IP JSI-124 treated PDX mice
From the text: (§2) A frequently used treatment modality for advanced ovarian cancer is the intraperitoneal administration of chemotherapy, such as cisplatin, which has local effects, but is also systemically reabsorbed to treat potential metastatic disease. […] Tumor growth was compared following IP JSI-124 treatment v. vehicle.

[5] = test system: patient ascites-derived spheroids; test: Mesothelial clearance (invasion through mesothelial monolayer); assay type: cell-based; conditions: pre-treatment 30 or 120 minutes followed by drug removal
Description: as §1

[6] = test system: spheroids of ovarian cancer cell lines OVCAR8 and TKYNU; test: as above; assay type: cell-based; conditions: treatment 30 minutes followed by drug removal
Description: as §1

[7] = test system: PDX model DF20 SC tumors; test: PDX model DF20, SC injected cancer cells, IP JSI-124 vs vehicle, BLI; assay type: in vivo, mice
Description: FIG. 7A-FIG. 7E are a series of graphs and images that depict the impact of JAK/STAT-inhibition on spheroid formation in vivo and anti-tumor activity. […] Each of these were performed following intraperitoneal (IP) or subcutaneous (SC) injection of cancer cells followed by IP therapy with JSI-124 vs. vehicle. Each group includes 5 mice. The inverted triangle indicates the time=0 of cancer cell injection. […] Mice were injected IP with tumor cells and one week later started treatment for a total 14 days. Each group includes 5 mice. Y-axis indicates log of bioluminescence imaging (BLI) signal (log total flux in p/s). Values are given as mean of log BLI signal, error bars indicate standard deviation from the mean. ***p<0.0001 (two-sided t test comparing mean±STDEV at Day 15 of treatment). […] Each group includes 5 mice. Y-axis indicates log BLI signal (log total flux in p/s). Values are given as mean of log BLI signal, error bars indicate standard deviation from the mean. ***p<0.0001 (two-sided t test comparing mean±STDEV at Day 15 of treatment). […] Mice were injected SC with tumor cells and one week later started treatment for a total 14 days. Each group includes 5 mice. Y-axis indicates log BLI signal (log total flux in p/s). Values are given as mean of log BLI signal, error bars indicate standard deviation from the mean. ***p<0.0001 (two-sided t test comparing mean±STDEV at Day 15 of treatment). […] Each group includes 5 mice. Y-axis indicates log BLI signal (log total flux in p/s). Values are given as mean of log BLI signal, error bars indicate standard deviation from the mean. ***p<0.0001 (two-sided t test comparing mean±STDEV at Day 15 of treatment).
as §2

[8] = test system: established ovarian cancer cell lines (OVCAR4, OVCAR8, OVASHO, TYKNU, Kuramachi); test: Spheroid formation in low adherent surface culture; assay type: cell-based
Description: FIG. 6A-FIG. 6G are a series of graphs and images depicting the impact of JAK/STAT-inhibition on spheroid formation, invasion and killing ex vivo and in vitro. FIG. 6A a histogram (FIG. 11B), showing drug screening with 14 compounds (at 1 μM) inhibiting the JAK/STAT pathway in OVACR4. Relative viability compared to DMSO control measured by CTG. […] The same library was screened in 2D-cultures of OVACR4 (FIG. 11A), and 2D-cultures of OVACR8 (FIG. 11C) and 3D-cultures of OVACR8 (FIG. 11D). FIG. 6B is a series of plots showing drug sensitivity testing using the GILA assay in platinum-resistant ex vivo spheroid cultures of patients DF3291 and DF3266, The X-axis indicates the log μM concentration of drugs indicated in the legend, Y-axis indicates the percentage of luminescence signal as indicator for viability relatively to DMSO treated cells. In both patients, half maximal effective concentration (EC50) were ˜100 nM and ˜10 nM, respectively, while other drugs routinely used for the treatment of (platinum-resistant) ovarian cancer had EC50>10 μM. FIG. 6C is a series of images of microscopic analysis of spheroids with different drug treatments to highlight the morphologic changes during therapy with drugs listed. Inhibition of JAK/STAT pathway disrupts ex vivo spheroid cultures. […] The X-axis indicates established ovarian cancer cell line ID. Y-axis indicates the relative number of formed spheroids when treated with either JSI-124 or carboplatin compared to untreated parental controls. Error bars indicate the standard deviation from the mean number of spheroids. […] JAK/STAT inhibition prevents spheroid formation. […] The Y-axis indicates the clearance ability (using arbitrary units). 20 spheroids clusters were analyzed for each iteration. Data is shown as mean (horizontal bar), interquartile range (box), and minimum and maximum (whiskers). Statistical analysis was performed using 1-way analysis of variance (ANOVA) and post hoc Tukey-Kramer **P<0.05. […] FIG. 6G is a histogram showing the inhibition of the JAK/STAT pathway. […]

[9] = SC tumors established 3 weeks, then IP treatment 14 days
[10] = SC tumors established 7 days, then 14 days IP therapy

SMILES: CC(C)(O)/C=C/C(=O)[C@](C)(O)[C@H]1[C@@H](O)C[C@@]2(C)[C@@H]3CC=C4[C@H](C=C(O)C(=O)C4(C)C)[C@]3(C)C(=O)C[C@]12C [JSI-124, cucurbitacin I]
- Effectiveness against patient-derived ovarian cells [1]: Effective
- Morphology of ex-vivo patient-derived ovarian cells after treatment ([2]; FIG. 36): massive elimination of tumor cells
- Spheroid morphology / integrity ([2]; platinum-resistant ex vivo spheroids): disintegration of the solid 3D spheroid structure
- STAT3-dependent luciferase activity [3]: significant reduction in STAT-dependent expression
- Adverse effect (body weight, ascites/edema) [4]: increased weight due to increased non-malignant ascites
- Ability to invade (clear) the mesothelial monolayer [5]: significantly reduced ability to invade the mesothelial monolayer; also recorded: unable to invade through the mesothelial monolayer
- Ability to invade the mesothelium [6]: abolished their ability to invade the mesothelium; also recorded: unable to invade through the mesothelial monolayer
- Established SC tumors [7, 9]: significant and near complete elimination of SC tumors
- mean day 15 log BLI signal±standard deviation [7, 9]: 8.52×10^8±3.1×10^8 p/s
- Growth of SC tumors [7, 10]: significantly inhibit development of tumors growth of SC tumors
- mean day 15 log BLI signal±standard deviation [7, 10]: 5.55×10^8±2.2×10^8 p/s
- Number of spheroids vs DMSO control ([8]; Kuramachi): significantly reduced the number of spheroids
- Formation of spheroids vs DMSO control ([8]; OVCAR4, OVCAR8, OVASHO, TYKNU): completely abrogated the formation of spheroids
